According to US20250206704A1, “ENGINEERED IONOPHORES FOR TRANSPORT OF METAL IONS” (The Brigham and Women's Hospital, Inc., priority 2022, published 2025):
Values after ≈ are worked out from the molar mass of the structure shown. “Also recorded” adds a separate entry of the source. Like-named read-outs stand apart in the source and are kept apart here.

Experiments:
U2OS cells [1] = assay: Zinc imaging assay (DA-ZP1 fluorescence) of ionophore activity in U2OS cells; assay type: cell-based; conditions: U2OS cells; for ionophore activity (Zn^II transport, DA-ZP1 fluorescence): 10 μM Zn(II) and 10 μM compound, 1 hour, then DA-ZP1; for ionophore activity (DA-ZP1 fluorescence): 10 μM Zn(II) and 5 μM compound; for concentration at which ionophore activity is displayed: DA-ZP1, comparison with known ionophores
Excerpt: A number of bispicolyl-based Zn^II-chelators were synthesized with increasing size at the ortho-position of phenolic OH by a one-step reductive amination between bispicolyl-amine and commercially available 3-substituted salicylaldehydes. Applicants examined the ionophore activity of bispicolyl analogs with methyl (Me, 2), isopropyl (iPr, 3), and tert-butyl (tBu, 4) substitutions (FIG. 1A). […] [13] The cells were first treated with ZnCl2 and ionophore candidates followed by DA-ZP1 treatment and fluorescence measurement.
Applicants experimentally determined the ionophore activity of these silyl-based compounds using the aforementioned DAZ-P1 assay in U2OS cells.
Applicants also determined metal-ion interference of the silyl-based ionophores with focused efforts on 8. Applicants designed a competition assay wherein Applicants pre-treated equimolar amounts of various metal ions, Mg^II, Ca^II, Mn^II, Fe^II, and Na^I, with 10 μM of Zn^II for 1 hour before treatment with DA-ZP1.
Finally, Applicants compared the activity of the designed compounds against known ionophores (FIGS. 2 and 11). […] [16]
In a 96-well plate, 20,000 U2OS cells were plated per well and cultured for 24 h in the incubator set to 37° C. with 5% CO2. […] The medium containing the compound was removed, and the cells were washed with 3×100 μL of fresh medium, and finally another 100 μL of 2 μM of DA-ZP1 was added to the corresponding cell culture medium containing HCS NuclearMask Blue Stain. The cells were again kept for 1 h in the incubator. The medium containing compound was removed, and the cells were washed with 1×100 μL of PBS and 2×100 μL of fresh medium, and finally, another 100 μL of fresh, dye-free medium was added. The cells were immediately imaged using a high-content fluorescence microscope (Operetta Phenix) in both the DAPI and FITC channels at 20× magnification. Images were analyzed using the Harmony software, and data were plotted using GraphPad Prism 9.

[2] = test system: Staphylococcus epidermidis; assay: MIC, broth microdilution; assay type: cell-based
Excerpt: (§1) Next, Applicants evaluated the antibacterial activities of the ionophores. First, Applicants determined their minimum inhibitory concentration (MIC) in the gram-positive bacterium that causes hospital-acquired infections, Staphylococcus epidermidis.
(§2) Applicants reasoned that limiting extracellular zinc with EDTA would abolish ionophore activity by depleting the available metal ions for membrane transport. […] [24]
(§3) Staphylococcus epidermidis ATCC® 12228™, Staphylococcus caprae ATCC® 51549™, Bacillus subtilis ATCC® 6051™, and Bacillus cereus ATCC® 14579™ were grown in cation-adjusted Mueller-Hinton broth (CA-MHB) (catalog no. 90922, Sigma) as per the Clinical and Laboratory Standards Institute guidelines.2 Bacteria were routinely grown at 37° C. under aerobic conditions.
(§4) The MIC assay was performed according to the Clinical and Laboratory Standards Institute protocols.^3 The antibacterial activities of the compounds were measured using the broth microdilution method. Serial dilutions of compounds were prepared in cation-adjusted Müller Hinton Broth. Each dilution (100 μL) was dispensed to each well of a round-bottom plate to obtain final concentrations ranging from 0.07815-40 μM. Bacteria were grown at 37° C. overnight on cation-adjusted Müller Hinton Broth. The bacterial solution was prepared in 0.9% saline and adjusted to obtain an OD600=0.1 using a SpectraMax M5 (Molecular Devices). The resultant suspension was diluted 1:20 with cation-adjusted Müller Hinton Broth. The resulting mixture (10 μL) was added to each well of the plates (approximately 5×10^4 CFU/well), mixed, and incubated at 37° C. for 24 h. The MIC value was determined as the minimum concentration that inhibited the growth of bacteria.

[3] = value quoted for comparison; cited from earlier work
Bacillus subtilis = assay: MIC, broth microdilution; assay type: cell-based; conditions: read-out: Strain MIC B. subtilis
Method: as §1, §3, §4

Bacillus cereus = assay: MIC, broth microdilution; assay type: cell-based; conditions: read-out: Strain MIC B. cereus
Method: as §1, §3, §4

Staphylococcus caprae = assay: MIC, broth microdilution; assay type: cell-based; conditions: read-out: Strain MIC S. caprae
Method: as §1, §3, §4

U2OS cells [4] = assay: U2OS cell viability assay (CellTiter-Glo); assay type: cell-based; conditions: Homo sapiens, 48 h, read-out: U2OS EC50 + 5 μM Zn^II
Method: as §2
U2OS cells were seeded in black 384-well plates at a density of 3,000 cells per well in 25 μL of medium per well. After seeding, the cells were left to adhere overnight. The compounds to be tested were added to the designated culture plates in 25 μL of medium in triplicate with a normalized DMSO concentration (0.05%) in all treatments, and the plates were placed at 37° C. in a humidified atmosphere containing 5% CO2. After 48 h, 40 μl of CellTiter-Glo (Promega) was added to each well and incubated for 30 min, after which the plate luminescence was analyzed in a PerkinElmer EnVision Manager 1.13 (PerkinElmer). The average growth of treated cells was calculated by correcting the values for background luminescence and was subsequently normalized to the average of the two lowest treatments of the compound in question. Data were plotted and fitted to a dose-response curve using GraphPad Prism 9.

bacteria vs U2OS cells = assay: Antibacterial selectivity (average molar MIC in bacteria vs EC50 in U2OS cells); assay type: cell-based
[5] = test system: S. epidermidis, S. caprae, B. subtilis, B. cereus; assay: Average MIC over the four gram-positive strains; assay type: cell-based
Method: as §1, §4

[6] = UV/Vis titration, stability constant (logK) with ZnCl2; assay type: physicochemical; conditions: UV/Vis titration with ZnCl2, TitrationFit
Excerpt: Applicants validated the design principles by confirming that the silyl group lowered the binding affinity and shielded the hydrophilic pocket. […] [17] […] Applicants confirmed that all compounds bound Zn^II with 1:1 stoichiometry (FIG. 12). […] Applicants superimposed the X-ray structure of the TIPS-containing Zn^II:9 complex with the literature precedented Zn^II:1 and observed significant structural distortion in the Zn^II:9 complex, which could explain the lower logK.
A solution of ligand was prepared in acetonitrile. The starting concentration was chosen to be around 0.10 mM, based on the absorption maximum of the compound. This solution (2.5 mL) was pipetted into a quartz cuvette with a 1-cm optical path length. The titration was performed by the stepwise addition of a 10-mM ZnC12 solution in acetonitrile. The absorption spectra were measured over the range of 250-800 nm. The calculation of the stability constants was accomplished using TitrationFit.1

U2OS cells [7] = assay: ICP-MS analysis of intracellular Zn(II) in U2OS cells; assay type: cell-based; conditions: 10 μM Zn(II) and 5 μM compound, 1 hour
Method: Next, Applicants used inductively coupled plasma mass spectrometry (ICP-MS) to validate the imaging assay and the ionophores activity (FIG. 1F). While the intracellular Zn^II levels where similar between DMSO and chelator 1, Zn^II concentrations inside cells were 3-fold higher when Applicants co-treated ionophores 8 and 9.
U2OS cells (˜200,000) were plated in a 6-well dish. After a day, the medium was aspirated, and Zn(II) (10 μM) and compounds (5 μM) containing media (2 mL) were added to each appropriate well. Cells were harvested by first washing each well with PBS containing EDTA (100 μM, 2×2.0 mL) and subsequently adding Milli-Q water ([…] to each well and incubating for 2-4 min. A portion of the resulting cell lysate (900 μL) was collected and transferred to an Eppendorf Safe-Lock tube, snap-frozen in N2(l), and then thawed at room temperature (RT) for a total of three freeze-thaw cycles. The insoluble lysate was pelleted (10 min at 10,000 g), and the soluble protein concentration of each sample was determined using the Pierce 660 nm Protein Assay in a 96-well plate (200 μL of reagent, 14 μL of sample, bovine serum albumin standard curve). Samples were then frozen and lyophilized overnight, and the resulting white, flaky solid was taken up in concentrated nitric acid (200 μL, ultrapure for trace metal analysis, BDH Aristar) and heated at 70° C. for 1 h. A portion of each sample (142 μL) was then diluted with water (2 mL) and a terbium internal standard (Agilent 5190-8590; stock at 10,000 parts per billion [ppb] in 10% nitric acid diluted to 100 ppb in Milli-Q water for addition to samples, 2 ppb final concentration), after which the metal content of the samples was assessed by ICP-MS. […] Therefore, 1 ppb was taken to be equal to 1 μg/L, and the molarity of a particular solution was considered equal to the measured concentration of a particular ion in ppb, divided by the molecular weight of the ion, multiplied by 10-6.

For `CC(C)(C)c1cccc(CN(Cc2ccccn2)Cc2ccccn2)c1O` [Compound 4, 2-((bis(pyridin-2-ylmethyl)amino)methyl)-6-(tert-butyl)phenol], the “ionophore activity (Zn^II transport, DA-ZP1 fluorescence)” value (U2OS cells [1]) was “efficiently transported Zn^II” and the MIC ([2]; read-out: MIC) was 7.2 µg/mL (≈ 19.9 µM).
For `c1ccc(CN(CCN(Cc2ccccn2)Cc2ccccn2)Cc2ccccn2)nc1` [TPEN, reference compound], the “logK (Zn^II binding) of known chelator/ionophore” value [3] is listed as 15.5.
With `CNc1ccc2oc(C[C@H]3O[C@@]4(CC[C@H]3C)O[C@H]([C@H](C)C(=O)c3ccc[nH]3)[C@H](C)C[C@H]4C)nc2c1C(=O)O` [calcimycin, reference compound] the MIC [2] was about 0.16 µg/mL (≈ 0.306 µM).
For `C[Si](C)(C)c1cccc(CN(Cc2ccccn2)Cc2ccccn2)c1O` [Compound 6, 2-((bis(pyridin-2-ylmethyl)amino)methyl)-6-(trimethylsilyl)phenol], the “ionophore activity (DA-ZP1 fluorescence)” value (U2OS cells [1]) was “elicited detectable fluorescence” and the MIC ([2]; read-out: MIC) was about 7.5 µg/mL (≈ 19.9 µM).
Compound `CC[C@@H](C(=O)O)[C@@H]1O[C@@H]([C@@H](C)[C@H](O)[C@H](C)C(=O)[C@H](CC)[C@H]2O[C@]3(C=C[C@@H](O)[C@]4(CC[C@@](C)([C@H]5CC[C@](O)(CC)[C@H](C)O5)O4)O3)[C@H](C)C[C@@H]2C)[C@@H](C)C[C@@H]1C` [narasin, reference compound] has an MIC ([2]; read-out: MIC) of 0.96 µg/mL (≈ 1.25 µM).
With `CC(C)(C)[Si](c1ccccc1)(c1ccccc1)c1cccc(CN(Cc2ccccn2)Cc2ccccn2)c1O` [Compound 10, 2-((bis(pyridin-2-ylmethyl)amino)methyl)-6-(tert-butyldiphenylsilyl)phenol] the “ionophore activity (DA-ZP1 fluorescence)” value (U2OS cells [1]) was “decreased the activity” and the MIC ([2]; read-out: MIC) was about 5.4 µg/mL (≈ 9.93 µM).
For `[O-][n+]1ccccc1S` [Pyrithione, pyrithione, reference compound], the “concentration at which ionophore activity is displayed” value (U2OS cells [1]) was 5 µM, the MIC (Bacillus subtilis) was 1.3 µg/mL (≈ 10.2 µM) and the MIC (Bacillus cereus) was 1.3 µg/mL (≈ 10.2 µM). It also gave an MIC (Staphylococcus caprae) of 0.6 µg/mL (≈ 4.72 µM), a CC50 (U2OS cells [4]) of 990 nM and an antibacterial selectivity (bacteria vs U2OS cells) of 0.11 times. The “selective toxicity to bacterial cells over mammalian cells” value (bacteria vs U2OS cells) was 0.1 fold, the “antibacterial selectivity” value (bacteria vs U2OS cells; ratio of average molar MIC and U2OS EC50, Table 4) was 0.11 and the MIC ([5]; read-out: Average MIC) was 1.1 µg/mL. It also gave an MIC ([5]; read-out: Average MIC (molar, in brackets)) of 8.7 µM, an MIC ([5]; read-out: average MIC) of 1.1 µg/mL and an MIC [2] of 1.3 µg/mL (≈ 10.2 µM). It also gave an MIC ([2]; read-out: Strain MIC S. epidermidis) of 1.3 µg/mL (≈ 10.2 µM).
For `C[C@H](CCC(=O)O)C[C@H](C)C[C@H](C)C(=O)/C=C(\O)[C@H](C)C[C@H](C)C/C=C/[C@@H](C)[C@@H](O)[C@@H](C)[C@@H](O)C[C@@H]1CC[C@@](C)([C@H]2CC[C@@](C)([C@@H](C)O)O2)O1` [ionomycin, reference compound], the MIC [2] was 15 µg/mL (≈ 21.2 µM).
Compound `CC[C@@H](C(=O)[C@@H](C)[C@@H](O)[C@H](C)[C@@H]1O[C@@H]([C@@H](CC)C(=O)O)CC[C@@H]1C)[C@H]1O[C@]2(C=C[C@@H](O)[C@]3(CC[C@@](C)([C@H]4CC[C@](O)(CC)[C@H](C)O4)O3)O2)[C@H](C)C[C@@H]1C` [salinomycin, reference compound] has an MIC [2] of 1.88 µg/mL (≈ 2.5 µM).
In the case of `Oc1ccccc1CN(Cc1ccccn1)Cc1ccccn1` [Compound 1, 2-((bis(pyridin-2-ylmethyl)amino)methyl)phenol], the “logK (Zn^II binding)” value [6] is reported as 12.5 and the “intracellular Zn^II level relative to DMSO” value (U2OS cells [7]) is reported as “similar”.
`CC[Si](CC)(CC)c1cccc(CN(Cc2ccccn2)Cc2ccccn2)c1O` [Compound 7, 2-((bis(pyridin-2-ylmethyl)amino)methyl)-6-(triethylsilyl)phenol] showed an MIC ([2]; read-out: MIC) of about 8.4 µg/mL (≈ 20 µM).
With `CC(C)(C)c1ccc(O)c(CN(Cc2ccccn2)Cc2ccccn2)c1` [Compound 5, 2-((bis(pyridin-2-ylmethyl)amino)methyl)-4-(tert-butyl)phenol] the “ionophore activity (Zn^II transport, DA-ZP1 fluorescence)” value (U2OS cells [1]) was “poor ionophore activity; also recorded: no ionophore activity” and the antibacterial activity ([2]; control compound) was “no ionophore activity in U2OS cells or antibacterial activity”.
With `CC(C)(C)n1ccn([BH-](n2ccn(C(C)(C)C)c2=S)n2ccn(C(C)(C)C)c2=S)c1=S.[K+]` [potassium hydrotris(N-tert-butyl-2-thioimidazolyl) borate, reference compound] the “concentration at which ionophore activity is displayed” value (U2OS cells [1]) was 5 µM.
